Results reported in publication PMC4594923, “Food Polyphenols Fail to Cause a Biologically Relevant Reduction of COX-2 Activity” (PLoS ONE, 2015).
pIC50: −log10 of the molar value. “Also recorded” adds a separate entry of the source.

Columns and labels:
[1] = i.p. 50 mg/kg bw, LPS 37.5 mg/kg bw, 28–42 h post LPS administration; cited from earlier work
MCP–1 = assay: kidney MCP–1 mRNA (qPCR) in LPS induced sepsis in mice; type: in vivo, C57BL/6N mice; settings: compound i. p. 100 mg/kg bw 2 h before LPS, 24 h after LPS, vs. LPS group
Description: (§1) Samples were stored at -80°C till further analysis. […] Plasma was generated by centrifugation at 4000 g at 4°C and stored at -80°C till further analysis.
(§2) Tissue sections were stored in RNA-later immediately after organ retrieval. Total RNA was extracted using the RNeasy mini kit system (Qiagen, Hilden, Germany) and transcribed using Superscript II Reverse transcriptase (Invitrogen). Quantitative (q) PCR was performed on […] (Roche Diagnostics, Penzberg, Germany) using FastStart Sybr-Green chemistry. Gene-specific primers for IL–6 (Quantitec QT00098875, Qiagen) and MCP–1 (Quantitec QT00167832, Qiagen) were used for the gene of interest and HPRT served as house keeping gene for normalization (Quantitec QT00166768, Qigaen). Quantification was carried out using qgene software.

IL–6 = assay: kidney IL–6 mRNA (qPCR) in LPS induced sepsis in mice; type: in vivo, C57BL/6N mice; settings: compound i. p. 100 mg/kg bw 2 h before LPS, 24 h after LPS
Description: as §1, §2

COX–2 [2] = molecular target: T1, COX–2 (Homo sapiens, UniProt P35354); assay: PGE2 formation in HCA–7 cells (24 h, LC-MS); type: cell-based; settings: for changes of PGE2 formation in HCA–7 cells: non-cytotoxic concentrations, 24 h
T1 sequence (P35354 18-604): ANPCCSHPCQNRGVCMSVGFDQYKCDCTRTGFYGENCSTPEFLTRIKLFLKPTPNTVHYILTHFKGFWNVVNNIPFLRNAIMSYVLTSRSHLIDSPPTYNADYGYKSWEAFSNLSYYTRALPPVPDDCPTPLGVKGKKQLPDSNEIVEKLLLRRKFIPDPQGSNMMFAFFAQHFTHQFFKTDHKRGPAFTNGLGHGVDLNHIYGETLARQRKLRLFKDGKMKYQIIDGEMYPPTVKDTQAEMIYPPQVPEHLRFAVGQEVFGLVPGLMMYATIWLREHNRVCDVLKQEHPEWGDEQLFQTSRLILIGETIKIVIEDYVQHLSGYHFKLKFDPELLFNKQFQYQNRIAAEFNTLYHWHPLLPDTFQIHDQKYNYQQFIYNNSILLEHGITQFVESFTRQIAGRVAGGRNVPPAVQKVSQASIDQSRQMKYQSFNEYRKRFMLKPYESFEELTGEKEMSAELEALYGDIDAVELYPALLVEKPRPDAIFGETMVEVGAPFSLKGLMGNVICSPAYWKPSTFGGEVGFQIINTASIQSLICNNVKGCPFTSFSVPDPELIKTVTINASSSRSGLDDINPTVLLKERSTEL
Description: (§3) The in vitro assays were performed as described [6, 16, 18] and COX metabolites were quantified by LC-MS [18].
HCA–7 cells were incubated with sub-cytotoxic concentrations of the polyphenols dissolved in Tris buffered DMEM medium. Cytotoxicity of the polyphenols was evaluated by the lactate dehydrogenase leakage test (Cyto-Tox-ONE, Promega Mannheim, Germany). After 24 h the supernatant was collected for LC-MS analysis and the cells were harvested to analyze the COX–2 expression by Western Blotting.
After 24 h, the supernatant was sampled for LC-MS and cells were collected for the COX–2 expression analysis by Western Blotting.
(§4) GraphPad Prism 5.0 (GraphPad Software, San Diego, USA) was used for data analysis, the fitting of dose response curves and calculation of the IC50 values. Statistical differences were determined by Dunnetts test (LPS vs. other groups).

[3] = single soy meal containing 3.6 μmol total genistein/kg bw; cited from earlier work
COX–2 [4] = molecular target: T1, COX–2; assay: cell-free COX–2 enzyme assay (PGE2 formation, LC-MS); type: biochemical
Description: as §3
(§5) Primary human monocytes were freshly isolated from human blood. Blood was collected from healthy human subjects after written informed consent was obtained. […] After 24 h, the supernatant was sampled for LC-MS and cells were collected for the COX–2 expression analysis by Western Blotting.
as §4

COX–2 protein = assay: COX–2 expression in LPS stimulated primary human monocytes (Western Blot); settings: 24 h, vs. control
Description: as §5

Row | SMILES | mortality [1] | kidney MCP–1 mRNA levels (MCP–1) | kidney IL–6 mRNA expression (IL–6; vs. LPS group) | inhibition at 100 µM (COX–2 [2]; HCA-7, 100 μM, read-out: inhibition, HCA-7 cell line) | changes of PGE2 formation in HCA–7 cells (COX–2 [2]) | maximal plasma concentrations (free and conjugated form) [3] | effect on COX–2 dependent PGE2 formation, cell-free enzyme assay (COX–2 [4]) | IC50 (95% CI), COX–2 enzyme assay (COX–2 [4]; calculated based on PGE2, n = 3) | COX-2 Expression, primary monocytes (COX–2 protein) | IC50 (95% CI), HCA-7 cell line (COX–2 [2]; calculated based on PGE2, n = 3, 24 h) | pIC50 (COX–2 [4]; calculated based on PGE2, n = 3, read-out: IC50 (95% CI), COX–2 enzyme assay) | further increase of kidney IL–6 mRNA expression in comparison to LPS group (IL–6)
1 | O=c1cc(-c2ccc(O)cc2)oc2cc(O)cc(O)c12 [Apigenin, apigenin] | reduced mortality | did not see an effect | did not see an effect |  |  |  |  |  |  |  |  | 
2 | O=c1c(-c2ccc(O)cc2)coc2cc(O)cc(O)c12 [Genistein, genistein] |  |  |  | 54% | affected | 4 µM | no effect | no effect (up to 30 μM) |  |  |  | 
3 | Oc1ccc(/C=C/c2cc(O)cc3c2[C@@H](c2cc(O)cc(O)c2)[C@H](c2ccc(O)cc2)O3)cc1 [ε-Viniferin, ε-viniferin] |  |  |  |  | no or only slight |  | dose-dependently decreased; also recorded: inhibited |  | no effect (up to 1 μM) | no effect (up to 1 μM) | 4.96 | 28 fold
